# Values joined by “and” are separate entries in the source; they are usually repeats but may differ in a detail not shown here. Equal entries are not always repeated. Toxic doses and inconclusive results are not listed.
# System: L1210 leukemia ip in BDF1 mice, survival T/C
# Assay: NCI In Vivo Anticancer Drug Screen. Data for tumor model L1210 Leukemia (intraperitoneal) in B6D2F1 (BDF1) mice
# Details: endpoint: mean survival time, higher = longer survival
# Outline: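 Tumor was transplanted into mice, which were then dosed with test compound or vehicle alone. Survival was recorded for each group, and the treated figure was expressed relative to the control figure.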
# [1] = dose: 100.0 mg/kg/injection, schedule: Q01DX009 (ip), vehicle: Klucel (hydroxypropylcellulose) (HPC)
# [2] = dose: 100.0 mg/kg/injection, schedule: Q04DX003 (ip), vehicle: Klucel (hydroxypropylcellulose) (HPC)
# [3] = dose: 200.0 mg/kg/injection, schedule: Q01DX009 (ip), vehicle: Klucel (hydroxypropylcellulose) (HPC)
# [4] = dose: 200.0 mg/kg/injection, schedule: Q04DX003 (ip), vehicle: Klucel (hydroxypropylcellulose) (HPC)
# [5] = dose: 400.0 mg/kg/injection, schedule: Q01DX009 (ip), vehicle: Klucel (hydroxypropylcellulose) (HPC)
# [6] = dose: 400.0 mg/kg/injection, schedule: Q04DX003 (ip), vehicle: Klucel (hydroxypropylcellulose) (HPC)
# [7] = dose: 25.0 mg/kg/injection, schedule: Q01DX009 (ip), vehicle: saline
# [8] = dose: 50.0 mg/kg/injection, schedule: Q01DX009 (ip), vehicle: saline
# [9] = dose: 100.0 mg/kg/injection, schedule: Q01DX001 (ip), vehicle: saline
# [10] = dose: 200.0 mg/kg/injection, schedule: Q01DX001 (ip), vehicle: saline
# [11] = dose: 100.0 mg/kg/injection, schedule: Q01DX009 (ip), vehicle: saline with Tween-80
# [12] = dose: 200.0 mg/kg/injection, schedule: Q01DX009 (ip), vehicle: saline with Tween-80
# [13] = dose: 50.0 mg/kg/injection, schedule: Q01DX001 (ip), vehicle: carboxymethylcellulose (CMC)
# [14] = dose: 100.0 mg/kg/injection, schedule: Q01DX001 (ip), vehicle: carboxymethylcellulose (CMC)
# [15] = dose: 200.0 mg/kg/injection, schedule: Q01DX001 (ip), vehicle: carboxymethylcellulose (CMC)
# [16] = dose: 400.0 mg/kg/injection, schedule: Q01DX001 (ip), vehicle: carboxymethylcellulose (CMC)
# [17] = dose: 100.0 mg/kg/injection, schedule: Q04DX003 (ip), vehicle: saline with Tween-80
# [18] = dose: 200.0 mg/kg/injection, schedule: Q04DX003 (ip), vehicle: saline with Tween-80
# [19] = dose: 400.0 mg/kg/injection, schedule: Q04DX003 (ip), vehicle: saline with Tween-80
# [20] = dose: 100.0 mg/kg/injection, schedule: Q04DX002 (ip), vehicle: Klucel (hydroxypropylcellulose) (HPC)
# [21] = dose: 200.0 mg/kg/injection, schedule: Q04DX002 (ip), vehicle: Klucel (hydroxypropylcellulose) (HPC)
smiles,measurement,setting,value
CCOC(=O)C(=O)c1c(C)[nH]c2ccccc12,T/C,[1],96 % of control
same,T/C,[2],103 % of control
same,T/C,[3],92 % of control
same,T/C,[4],95 % of control
same,T/C,[5],94 % of control
same,T/C,[6],97 % of control
COc1ccc(C(=O)C(C)(CN(C)C)c2ccccc2)cc1 (stereo unspecified),T/C,[7],93 % of control
same,T/C,"dose: 25.0 mg/kg/injection, schedule: Q04DX003 (ip), vehicle: saline",92 % of control
same,T/C,[8],100 % of control
same,T/C,"dose: 50.0 mg/kg/injection, schedule: Q04DX003 (ip), vehicle: saline",94 % of control
same,T/C,"dose: 100.0 mg/kg/injection, schedule: Q01DX009 (ip), vehicle: saline",102 % of control
same,T/C,"dose: 100.0 mg/kg/injection, schedule: Q04DX003 (ip), vehicle: saline",93 % of control and 101 % of control
Cc1ccc(C(=O)C(C)CN2CCCCC2)cc1 (stereo unspecified),T/C,[9],97 % of control
same,T/C,[10],94 % of control
N#CC(c1ccc(Cl)cc1)c1ccccn1 (stereo unspecified),T/C,"dose: 75.0 mg/kg/injection, schedule: Q04DX003 (ip), vehicle: other",96 % of control
same,T/C,"dose: 150.0 mg/kg/injection, schedule: Q04DX003 (ip), vehicle: other",96 % of control
same,T/C,"dose: 300.0 mg/kg/injection, schedule: Q04DX003 (ip), vehicle: other",94 % of control
O=c1oc(-c2ccc3c(c2)OCO3)nc2ccccc12,T/C,"dose: 50.0 mg/kg/injection, schedule: Q01DX009 (ip), vehicle: saline with Tween-80",94 % of control
same,T/C,[11],94 % of control
same,T/C,[12],94 % of control
Nc1nc(N)nc(Cc2nc(N)nc(N)n2)n1,T/C,[13],90 % of control
same,T/C,[14],87 % of control
same,T/C,[15],92 % of control
same,T/C,[16],95 % of control
Clc1ccc(SSC(Cl)(Cl)Cl)cc1,T/C,"dose: 25.0 mg/kg/injection, schedule: Q01DX009 (ip), vehicle: Klucel (hydroxypropylcellulose) (HPC)",98 % of control
same,T/C,"dose: 50.0 mg/kg/injection, schedule: Q01DX009 (ip), vehicle: Klucel (hydroxypropylcellulose) (HPC)",88 % of control
same,T/C,[1],93 % of control
Cn1cc([N+](=O)[O-])c(=O)n(C)c1=O,T/C,[13],93 % of control
same,T/C,[14],98 % of control
same,T/C,[15],102 % of control
same,T/C,[16],104 % of control
CC(=O)Nc1ccc(/C=C/c2cc[n+](C)cc2)cc1,T/C,[17],97 % of control
same,T/C,[18],111 % of control
same,T/C,[19],102 % of control
CC(C)C1CCC(N)CC1 (stereo unspecified),T/C,"dose: 75.0 mg/kg/injection, schedule: Q01DX001 (ip), vehicle: saline",100 % of control
NC(=O)c1[nH]cnc1/N=N/N(CCF)CCF,T/C,"dose: 1.87 mg/kg/injection, schedule: Q01DX009 (ip), vehicle: other",106 % of control
same,T/C,"dose: 3.75 mg/kg/injection, schedule: Q01DX009 (ip), vehicle: other",123 % of control
same,T/C,"dose: 10.0 mg/kg/injection, schedule: Q01DX001 (ip), vehicle: other",106 % of control
same,T/C,"dose: 15.0 mg/kg/injection, schedule: Q01DX009 (ip), vehicle: other",153 % of control
O=S1(=O)CCCCN1,T/C,"dose: 44.0 mg/kg/injection, schedule: Q01DX009 (ip), vehicle: saline",101 % of control
same,T/C,"dose: 87.5 mg/kg/injection, schedule: Q01DX009 (ip), vehicle: saline",102 % of control
same,T/C,"dose: 175.0 mg/kg/injection, schedule: Q01DX009 (ip), vehicle: saline",98 % of control
same,T/C,"dose: 350.0 mg/kg/injection, schedule: Q01DX009 (ip), vehicle: saline",90 % of control
Cc1cccc(Cl)c1NC(=O)C(C)N1CCCC1 (stereo unspecified),T/C,"dose: 12.5 mg/kg/injection, schedule: Q01DX009 (ip), vehicle: saline",101 % of control
same,T/C,[7],98 % of control
same,T/C,[8],93 % of control
CCCC[P+](C)(CCCC)CCCC,T/C,"dose: 8.8 mg/kg/injection, schedule: Q01DX Z (ip), vehicle: saline",98 % of control
same,T/C,"dose: 13.3 mg/kg/injection, schedule: Q01DX Z (ip), vehicle: saline",93 % of control
same,T/C,"dose: 20.0 mg/kg/injection, schedule: Q01DX Z (ip), vehicle: saline",86 % of control
CC(C)(C)NC(=O)Nc1cccc(OC(=O)NC(C)(C)C)c1,T/C,[17],90 % of control
same,T/C,[18],87 % of control
same,T/C,[19],87 % of control
COc1cc([N+](=O)[O-])c(/C=C2/c3cc(OC)c(OC)cc3CCN2C)cc1Br,T/C,[1],100 % of control
same,T/C,[2],90 % of control
same,T/C,[3],96 % of control
same,T/C,[4],96 % of control
same,T/C,[5],92 % of control
same,T/C,[6],95 % of control
Nc1nc2ncc(CNc3ccc(C(=O)NC(CCC(=O)O)C(=O)O)s3)nc2c(=O)[nH]1 (stereo unspecified),T/C,[9],95 % of control
same,T/C,[10],101 % of control and 95 % of control
same,T/C,"dose: 400.0 mg/kg/injection, schedule: Q01DX001 (ip), vehicle: saline",93 % of control and 90 % of control
C[C@]12CCC(=O)C=C1CC[C@@H]1[C@@H]2[C@@H](O)C[C@@]2(C)[C@H]1CC[C@]2(O)C(=O)COC(=O)c1ccc([N+](=O)[O-])cc1Cl,T/C,"dose: 100.0 mg/kg/injection, schedule: Q01DX001 (sc), vehicle: steriod suspending solution",101 % of control
same,T/C,"dose: 200.0 mg/kg/injection, schedule: Q01DX001 (sc), vehicle: steriod suspending solution",101 % of control
same,T/C,"dose: 400.0 mg/kg/injection, schedule: Q01DX001 (sc), vehicle: steriod suspending solution",97 % of control
CC[CH2][Sn]([Br])([CH2]CC)[CH2]CC,T/C,"dose: 1.56 mg/kg/injection, schedule: Q01DX009 (ip), vehicle: saline",95 % of control
same,T/C,"dose: 3.12 mg/kg/injection, schedule: Q01DX009 (ip), vehicle: saline",102 % of control
COc1ccc(C(=O)Nc2ccccc2)cc1NC(=S)Nc1ccccc1,T/C,[20],95 % of control
same,T/C,[21],98 % of control
CSCC(O)CSC,T/C,"dose: 100.0 mg/kg/injection, schedule: Q04DX002 (ip), vehicle: saline with Tween-80",90 % of control
same,T/C,"dose: 200.0 mg/kg/injection, schedule: Q04DX002 (ip), vehicle: saline with Tween-80",93 % of control
same,T/C,"dose: 400.0 mg/kg/injection, schedule: Q04DX002 (ip), vehicle: saline with Tween-80",87 % of control
CC1(C)N=C(N)N=C(N)N1c1ccc2c(Cl)c(Cl)ccc2c1,T/C,"dose: 50.0 mg/kg/injection, schedule: Q04DX003 (ip), vehicle: saline with Tween-80",106 % of control
same,T/C,[17],107 % of control and 114 % of control
same,T/C,[18],107 % of control
Cc1ccc2nn(-c3ccc(O)cc3)nc2c1,T/C,[14],98 % of control
same,T/C,[15],93 % of control
same,T/C,[16],96 % of control
Cc1ccc(C)c(NS(=O)(=O)c2ccc(Cl)cc2)c1,T/C,[1],102 % of control
same,T/C,[2],107 % of control
same,T/C,[3],98 % of control
same,T/C,[4],113 % of control
same,T/C,[5],98 % of control
same,T/C,[6],113 % of control
CC1CCC2C1C1C(CCC2(C)O)C1(C)C (stereo unspecified),T/C,"dose: 100.0 mg/kg/injection, schedule: Q01DX009 (ip), vehicle: other",90 % of control
same,T/C,"dose: 100.0 mg/kg/injection, schedule: Q04DX003 (ip), vehicle: saline sonified",103 % of control
same,T/C,"dose: 200.0 mg/kg/injection, schedule: Q01DX009 (ip), vehicle: other",95 % of control
same,T/C,"dose: 200.0 mg/kg/injection, schedule: Q04DX003 (ip), vehicle: saline sonified",103 % of control
same,T/C,"dose: 400.0 mg/kg/injection, schedule: Q01DX009 (ip), vehicle: other",98 % of control
same,T/C,"dose: 400.0 mg/kg/injection, schedule: Q04DX003 (ip), vehicle: saline sonified",102 % of control
CSc1ccccc1NC(=O)c1cccs1,T/C,[20],89 % of control
same,T/C,[21],96 % of control
same,T/C,"dose: 400.0 mg/kg/injection, schedule: Q04DX002 (ip), vehicle: Klucel (hydroxypropylcellulose) (HPC)",93 % of control
CN1C2CCC1CC(NCCN1CC1)C2 (stereo unspecified),T/C,[9],107 % of control
NN1C(=O)c2ccccc2C1=O,T/C,[11],100 % of control
same,T/C,[12],95 % of control
same,T/C,"dose: 400.0 mg/kg/injection, schedule: Q01DX009 (ip), vehicle: saline with Tween-80",92 % of control
